Results on nine compounds are retold here after paper PMC4601772, “Investigating Apoptozole as a Chemical Probe for HSP70 Inhibition” (PLoS ONE, 2015).

Series [1] has as its target T1, human HSP72 (Homo sapiens, UniProt P0DMV8).
T1 construct: 6xHis (N); human rhinovirus 3C protease cleavage site (N); made in house; host or cells: E. coli BL21-AI
The series is described as follows: Fluorescence polarisation KD determination of probes, HSP72. The series is classed as binding. The conditions noted are these: for pKD: human HSP72, geometric mean ± SEM, 3 measurements; for Kd: human HSP72 titrated against fixed probe concentration, geometric mean of 3. As for the experimental part: (§1) Unless otherwise stated the aqueous assay buffer contained 50 mM TRIS base pH 7.4, 150 mM NaCl, 6 mM MgCl2, 1 mM DTT, 0.1% (wt/wt) CHAPS. The assay was conducted using 384 Plus F ProxiPlates (PerkinElmer) with a final assay volume of 10 μL. Plates were centrifuged at 1000 rpm for 1 minute prior to incubation and read using an 2103 Envision Multilable Plate Reader. Excitation and emission wavelengths used for green probes were 480 nm and 535 nm, respectively. Excitation and emission wavelengths used for red probes were 620 nm and 688 nm, respectively. Fluorescence polarisation was measured in units of millipolarization (mP). All experiments were performed in triplicate, except for experiments with ATP-Cy5 and apoptozole-Cy5, which were performed in duplicate. Data were plotted and analyzed using GraphPad Prism 6, graphical data represents the geometric mean ± standard error of the mean for a single representative experiment.
(§2) To each well, 5 μL of probe molecule (20 nM in assay buffer) and increasing concentrations of HSP70 protein (5 μL, two-fold dilution series) were added. Fluorescence polarisation values for tracer control wells (10 nM probe in assay buffer only) were subtracted from each data point prior to data analysis. KD determination was performed using non-linear regression analysis (GraphPad Prism 6, one site–specific binding model).
A general note: In fluorescence polarisation assays a small probe gives low polarisation when free and higher when bound to something large.

Series [2] deals with T2, human HSC70 (Homo sapiens, UniProt P11142).
T2 construct: purchased Abcam
The series is described as follows: Fluorescence polarisation KD determination of probes, HSC70. The series is classed as binding. The conditions noted are these: single determination. As for the experimental part: as §1, §2

For series [3], the target named is T1, human HSP72. The series is described as follows: SPR Procedure A, biotinylated apoptozole 4 on neutravidin chip, human HSP72. The series is classed as binding. As to conditions: human HSP72 31–500 nM, control subtracted. As for the experimental part:
(§3) SPR analysis was performed on a Biacore T200 (GE Healthcare) at 25°C at a flow rate of 30 μL/min. The running buffer contained 1 x PBS and was prepared from 10 x concentrated PBS (GE Healthcare) on the day of use. Series S Sensor Chip CM5 was purchased from GE Healthcare, stored at […] and brought to room temperature prior to use.
(§4) The sensor chip was activated by injection of a 1:1 mixture of 500 mM NHS and 200 mM EDC for 420 seconds. Neutravidin (50 μg/mL in 10 mM sodium acetate buffer, pH 5.5) was injected across the chip surface for 60 seconds, followed by injection of 1 mM ethanolamine (pH 8.5) for 420 seconds. Biotinylated-apoptozole 4 (100 μM in 1:1 DMSO/PBS) was injected over the chip surface for 420 seconds. Human and rat HSP72 (500 nM in PBS) were injected at concentrations of 31–500 nM, injection time: 60 seconds, dissociation time: 60 seconds. The control lane was subjected to the conditions described above but derivatization with biotinylated apoptozole 4 was omitted.

The target of series [4] is T3, rat HSP72 (Rattus norvegicus, UniProt P0DMW0).
T3 construct: purchased Enzo Life Sciences
The series is described as follows: SPR Procedure A, biotinylated apoptozole 4 on neutravidin chip, rat HSP72. The series is classed as binding. The conditions noted are these: rat HSP72 31–500 nM, control subtracted. As for the experimental part:
as §3, §4

Series [5] has as its target T1, human HSP72. The series is described as follows: Fluorescence polarisation competitive binding with ATP-FAM probe. The conditions noted are these: for IC50: displacement of ATP-FAM (10 nM) from human HSP72, geometric mean of 3; for pIC50: displacement of ATP-FAM from human HSP72, geometric mean ± SEM, 3 measurements. As for the experimental part:
as §1
Compounds (0.2 μL at 50 x screening concentration in DMSO) were dispensed using an ECHO 550 Liquid Handler (labcyte Inc.). To the corresponding wells was added, 5 μL of probe molecule (20 nM in assay buffer) and 5 μL of protein (two times their final concentration in assay buffer) to give a 50% bound fraction.[30] Tracer controls (10 nM probe molecule only) and bound tracer controls (10 nM probe in the presence of appropriate protein concentration) were included on each assay plate. IC50 determination was performed using non-linear least squares curve fitting (GraphPad Prism 6, log(inhibitor) vs. response—variable slope (four parameters)).

Series [6] deals with HSP70. On the set-up: method as in PMID 24265689. The conditions noted are these: cited from earlier work.
Series [7] is described as follows: Dynamic light scattering (aggregation under aqueous conditions). The series is classed as physicochemical. As for the experimental part: Apoptozole and VER-155008 (10 mM in DMSO) were diluted in 1 x PBS buffer with a final DMSO concentration of 2%, ± 0.01% v/v Triton X-100. Measurements were performed using a Protein Solutions DynaPro (Wyatt Technology) at room temperature. Data were acquired and processed by the software Dynamics, version 6.10 and calculation of particle radius performed by the cumulant analysis tool. The detector angle was 90°, the laser power was set to 30% and the integration time was 150 s. Each radius value presents three independent measurements, values are quotes as arithmetic mean ± standard error of the mean.

Series [8] has as its target T3, rat HSP72. More on the design: method as in PMID 18729127. As to conditions: SPR; cited from earlier work.
Series [9] concerns the target bovine HSC70. More on the design: method as in PMID 18729127. The conditions noted are these: SPR; cited from earlier work. On the technique in general: In SPR one partner is held on a chip, and binding of the other changes the refractive index at the surface.
Series [10] deals with SK-OV-3. On the set-up: method as in PMID 18729127. The conditions noted are these: cited from earlier work.
In series [11] the test system is HCT-15. On the set-up: method as in PMID 18729127. As to conditions: cited from earlier work.
Series [12] has as its system A549. On the set-up: method as in PMID 18729127. The conditions noted are these: cited from earlier work.
For series [13], the target named is T1, human HSP72. The series is described as follows: SPR Procedure B, apoptozole derivative 6 bound directly to CM5 chip. The conditions noted are these: three immobilisation levels, HSP72 up to 32 μM. The series is classed as binding. As for the experimental part:
as §3
The sensor chip was activated by injection of a 1:1 mixture of 500 mM NHS and 200 mM EDC for 420 seconds. Apoptozole derivative 6 (100 μM in 1:1 DMSO/PBS) was injected over the chip surface, to give immobilization levels of approximately 4000, 8000 and 12000 RU. Ethanolamine (1 mM, pH 8.5) was then injected over the chip surface for 420 seconds. Human HSP72 (32 μM in PBS) was injected at concentrations of 62 nM–32 μM, injection time: 60 seconds, dissociation time: 60 seconds. The control lane was subjected to the conditions described above but derivatization with apoptozole derivative 6 was omitted.

Setting [14] is: 10 μM, without Triton X-100, PBS 2% DMSO.

Some results are limits rather than exact numbers.

T1 sequence (P0DMV8 whole entry): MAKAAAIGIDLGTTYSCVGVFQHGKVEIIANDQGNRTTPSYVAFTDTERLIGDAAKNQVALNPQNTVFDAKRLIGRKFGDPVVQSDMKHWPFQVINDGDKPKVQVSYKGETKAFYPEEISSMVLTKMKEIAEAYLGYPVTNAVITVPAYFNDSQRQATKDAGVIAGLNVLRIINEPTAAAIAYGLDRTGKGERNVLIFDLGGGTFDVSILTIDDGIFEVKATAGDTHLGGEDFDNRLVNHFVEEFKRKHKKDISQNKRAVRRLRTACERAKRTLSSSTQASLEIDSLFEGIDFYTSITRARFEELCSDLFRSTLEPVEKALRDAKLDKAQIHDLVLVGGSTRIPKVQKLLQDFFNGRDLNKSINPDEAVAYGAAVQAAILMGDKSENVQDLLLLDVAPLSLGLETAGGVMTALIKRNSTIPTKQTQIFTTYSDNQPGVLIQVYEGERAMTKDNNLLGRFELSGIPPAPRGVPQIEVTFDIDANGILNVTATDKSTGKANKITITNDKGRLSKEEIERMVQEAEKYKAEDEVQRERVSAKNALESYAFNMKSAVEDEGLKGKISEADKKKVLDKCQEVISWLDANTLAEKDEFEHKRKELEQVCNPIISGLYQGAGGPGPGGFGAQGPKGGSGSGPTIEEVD
T3 sequence (P0DMW0 2-641 limits assumed): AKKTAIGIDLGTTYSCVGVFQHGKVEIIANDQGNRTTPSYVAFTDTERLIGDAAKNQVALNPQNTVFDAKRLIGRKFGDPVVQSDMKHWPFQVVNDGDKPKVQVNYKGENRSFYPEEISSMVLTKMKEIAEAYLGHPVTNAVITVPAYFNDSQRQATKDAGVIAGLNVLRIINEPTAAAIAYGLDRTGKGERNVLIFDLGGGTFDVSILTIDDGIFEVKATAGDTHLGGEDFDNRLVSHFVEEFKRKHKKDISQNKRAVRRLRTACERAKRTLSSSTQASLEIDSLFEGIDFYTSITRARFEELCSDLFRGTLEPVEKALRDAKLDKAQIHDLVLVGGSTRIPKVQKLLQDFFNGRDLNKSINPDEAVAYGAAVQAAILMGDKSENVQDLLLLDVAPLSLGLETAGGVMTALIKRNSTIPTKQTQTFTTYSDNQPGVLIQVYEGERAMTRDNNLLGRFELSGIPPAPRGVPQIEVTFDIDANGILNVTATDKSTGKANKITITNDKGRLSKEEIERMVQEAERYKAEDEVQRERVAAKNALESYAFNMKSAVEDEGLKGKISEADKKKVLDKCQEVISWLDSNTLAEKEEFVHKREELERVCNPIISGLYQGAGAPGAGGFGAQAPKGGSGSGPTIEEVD
T2 sequence (P11142 whole entry): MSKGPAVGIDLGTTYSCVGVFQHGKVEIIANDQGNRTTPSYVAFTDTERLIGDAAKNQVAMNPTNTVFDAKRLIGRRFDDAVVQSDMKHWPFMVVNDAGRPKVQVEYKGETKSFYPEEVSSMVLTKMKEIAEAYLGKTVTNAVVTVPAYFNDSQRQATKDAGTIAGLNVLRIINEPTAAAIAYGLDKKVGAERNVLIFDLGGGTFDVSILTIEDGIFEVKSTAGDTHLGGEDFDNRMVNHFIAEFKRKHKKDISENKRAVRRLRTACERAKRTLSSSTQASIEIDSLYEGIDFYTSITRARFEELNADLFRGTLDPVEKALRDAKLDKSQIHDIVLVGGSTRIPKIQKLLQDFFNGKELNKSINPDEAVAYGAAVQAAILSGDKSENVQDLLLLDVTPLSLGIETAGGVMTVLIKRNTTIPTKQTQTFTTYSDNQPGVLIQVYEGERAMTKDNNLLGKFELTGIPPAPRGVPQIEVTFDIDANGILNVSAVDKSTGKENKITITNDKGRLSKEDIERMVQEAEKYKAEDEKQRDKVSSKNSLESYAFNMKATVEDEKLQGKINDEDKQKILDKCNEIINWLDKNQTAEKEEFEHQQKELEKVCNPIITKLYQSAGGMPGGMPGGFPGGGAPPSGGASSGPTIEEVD

As to N^6-(6-Amino)hexyl-ATP-6-FAM [ATP-FAM], in series [1], the negative-log KD (pKD) is recorded as 6.50 ± 0.04 and the dissociation constant Kd turned out to be 320 nM. In addition, in series [2], the affinity, expressed as Kd, was 970 nM.

In series [1], N^6-(6-Amino)hexyl-ATP-Cy5 came in with a pKD of 5.95 ± 0.02 and a dissociation constant (Kd) of 1100 nM.

`COc1ccc(-c2nc(-c3cc(C(F)(F)F)cc(C(F)(F)F)c3)n(Cc3ccc(C(=O)NCCOCCOCCNC(=O)CCC(=O)NCCOCCOCCNC(=O)CCCC[C@@H]4SC[C@@H]5NC(=O)N[C@@H]54)cc3)c2-c2ccc(OC)cc2)cc1` [compound 4, N^1-(2-(2-(2-(4-((2-(3,5-Bis(trifluoromethyl)phenyl)-4,5-bis(4-methoxyphenyl)-1H-imidazol-1-yl)methyl)benzamido)ethoxy)ethoxy)ethyl)-N^4-(2-(2-(2-(5-((3aS,4S,6aR)-2-oxohexahydro-1H-thieno[3,4-d]imidazol-4-yl)pentanamido)ethoxy)ethoxy)ethyl)succinamide]: the “Binding interaction (SPR)” value in series [3] and in series [4] was “no evidence of binding interactions” throughout.

In series [5], `Nc1ncnc2c1ncn2[C@@H]1O[C@H](COP(=O)(O)OP(=O)(O)OP(=O)(O)O)[C@@H](O)[C@H]1O` [ATP] had an IC50 of 1200 nM and a pIC50 of 5.94 ± 0.05.

With pifithrin-μ, in [6], the “Mode of binding to HSP70” value is “unspecific, detergent-like way”.

In series [5], `Nc1ncnc2c1ncn2[C@@H]1O[C@H](COP(=O)(O)OP(=O)(O)O)[C@@H](O)[C@H]1O` [ADP] showed an IC50 of 670 nM and a negative-log IC50 (pIC50) of 6.17 ± 0.11.

In series [5], `N#Cc1ccc(COC[C@H]2O[C@@H](n3c(NCc4ccc(Cl)c(Cl)c4)nc4c(N)ncnc43)[C@H](O)[C@@H]2O)cc1` [VER-155008] registered a concentration for half-maximal inhibition (IC50) of 490 nM and a negative-log IC50 (pIC50) of 6.31 ± 0.06. Also, the Aggregate formation result in series [7] (10 μM) is recorded as “no evidence of aggregate formation”. In series [7] (10 μM, with 0.01% Triton X-100), this compound came in with an Intensity of 318.2 ± 61.3 kcps and a Radius of 101.1 ± 9.0 nm. The Intensity in [7] (10 μM, without Triton X-100) came to 63.2 ± 5.8 kcps. Moreover, the Radius in series [7] (setting [14]) amounted to 88.5 ± 8.3 nm.

Turning to `COc1ccc(-c2nc(-c3cc(C(F)(F)F)cc(C(F)(F)F)c3)n(Cc3ccc(C(N)=O)cc3)c2-c2ccc(OC)cc2)cc1` [apoptozole], the “ATP-competitive binding (displacement of ATP-FAM probe)” value in [5] (concentrations up to 80 μM) was “no displacement of the ATP-FAM probe observed”. For the same compound, the Intensity in series [7] (1 μM, without Triton X-100) stood at 132.6 ± 39.7 kcps; in series [7] (5 μM, without Triton X-100), 1047.5 ± 183.1 kcps; in series [7] (10 μM, with 0.01% Triton X-100), 2350.0 ± 173.1 kcps; in series [7] (10 μM, without Triton X-100) it was 1441.1 ± 186.5 kcps. The Radius in [7] (1 μM, without Triton X-100) is 89.3 ± 5.8 nm; in series [7] (5 μM, without Triton X-100), 454.4 ± 36.4 nm; in series [7] (10 μM, with 0.01% Triton X-100) it was 86.5 ± 2.1 nm; in [7] (setting [14]) it was 521.5 ± 30.9 nm. Moreover, the “Concentration at which large colloidal aggregates form” value in [7] (aqueous conditions) was at least 5 µM. The compound also returned a Particle radius in series [7] (concentrations ≥ 5 μM, without detergent) of over 450 nm. Besides, the Kd is 140 nM in series [8] and 210 nM in series [9]. Besides, the results for the 50% growth inhibitory concentration (GI50) in series [10], in series [11] and in series [12] were 220 nM, 250 nM and 130 nM, respectively.

As to `COc1ccc(-c2nc(-c3cc(C(F)(F)F)cc(C(F)(F)F)c3)n(Cc3ccc(C(=O)NCCOCCOCCNC(=O)CCC(=O)NCCOCCOCCN)cc3)c2-c2ccc(OC)cc2)cc1` [compound 6, N^1-(2-(2-(2-Aminoethoxy)ethoxy)ethyl)-N^4-(2-(2-(2-(4-((2-(3,5-bis(trifluoromethyl)phenyl)-4,5-bis(4-methoxyphenyl)-1H-imidazol-1-yl)methyl)benzamido)ethoxy)ethoxy)ethyl)succinamide], the “Binding interaction (SPR)” value in series [13] is recorded as “no binding interactions were observed”.

Usually pKD stands for the KD on a negative log10 scale, so that one unit is a factor of ten. In general, Kd refers to the equilibrium constant for the complex coming apart. In general, IC50 refers to the point on the concentration scale where inhibition reaches its midpoint. A higher IC50 goes with weaker potency. For orientation: pIC50 means the negative decadic logarithm of the IC50, by convention in mol/L. Lower therefore signals a large IC50. A word on the GI50: it is the concentration at which growth is held to half of that of the control.
